Each structure is given as a SMILES string.

For one assay, the system named is Nucleic Acid. The experiment in a line: DNA cleavage activity as 70% FormI DNA cleavage. It counts as nucleic-acid assay.
The test system of the next assay is P388. Put plainly: Cytotoxicity against P388 cell line(mouse T cell leukemia). It counts as functional, cell-based.

In the assay with Nucleic Acid, `CCCC(O)C#CCS(=O)(=O)c1ccccc1` (stereo not drawn) registered a C70 of 800 µM.

For the molecule `O=C(OCC#CCCCC#CCS(=O)(=O)c1ccc2ccccc2c1)c1ccc2cc3ccccc3cc2c1`, the midpoint of inhibition in the assay with P388, the IC50, lay at 17 µM.

For the molecule `O=S(=O)(CC#CCCCC#CCO)c1ccccc1`, in the assay on Nucleic Acid, the C70 came out at 1000 µM.

With `O=C(OCC#CCCCC#CCS(=O)(=O)c1ccc2ccccc2c1)c1ccc2c(c1)C(=O)c1ccccc1C2=O`, in the assay on P388, the IC50 – broadly, the concentration that gives 50% inhibition – was determined as 41 µM. That is a double-digit micromolar value.

In the assay with Nucleic Acid, `CCCC(O)C#CCS(=O)(=O)c1ccc2ccccc2c1` (stereo not drawn) yielded a C70 of 5 µM.

In the assay with P388, `O=C(OCC#CCCCC#CCS(=O)(=O)c1ccc2ccccc2c1)c1cccc2cc3ccccc3cc12` had an IC50 of 42 µM.

In the assay on Nucleic Acid, `O=S(=O)(CC#CCCCC#CCO)c1ccc2ccccc2c1` had a C70 of 10 µM. In the assay on P388, this molecule had an IC50 of 10 µM.
